# US20210230300A1, “INHIBITORS OF SHP2” (Bayer Aktiengesellschaft, priority 2018, published 2021)
# Entries after “also recorded” stand apart in the source; their conditions may differ. Marks after values point to notes of the source that are not given here.
# Tests used:
# [1] = system: Mouse 3 day unilateral ureter obstruction (UUO) model; assay: Mouse 3 day unilateral ureter obstruction (UUO) model, macrophage infiltration by flow cytometry (CD45, F4/80); assay type: in vivo; conditions: 3 day UUO
# Protocol: As a placebo, a solution without active ingredient was used (group 2), and a sham operated group with unligated kidney was used as a positive control (group 1)
# The infiltration of macrophages in response to the renal injury was measured in a flow cytometry assay with detection antibodies binding to the pan-leukocyte marker CD45, as well as to the macrophage-specific antigen, F4/80.
# [2] = system: Mouse 10 day unilateral ureter obstruction (UUO) model; assay: Mouse 10 day UUO model, renal mRNA expression of fibrotic markers (TaqMan real time PCR); assay type: in vivo; conditions: for Col1α1 mRNA expression, percentage vs. placebo / Col3α1 mRNA expression, percentage vs. placebo / Col4α1 mRNA expression, percentage vs. placebo / αSMA mRNA expression, percentage vs. placebo: kidney
# Protocol: (§1) The study was performed on male C57/B16J mice (age: 7-8 weeks) that were obtained from Charles River. Mice were anesthetized with continuous inhaled isoflurane, and the left ureter was exposed via a mid-abdominal incision. The mid-ureter was obstructed by two point ligation with silk sutures. The SHAM-operated mouse (n=6) underwent the same procedure except for the obstruction of the left ureter.
# (§2) The mice were randomized into four groups (n=10 each group): UUO plus vehicle (10% EtOH/40% PEG/50% water), UUO plus 3 [mg/kg] […] SHP099. Mice were dosed bidaily with vehicle and SHP099. The forth group of mice with UUO was treated once daily with Tivozanib (technical control). At ten days after surgery, mice were euthanized, and kidneys were collected and divided in two parts.
# (§3) One part was snap-frozen in liquid nitrogen for RNA analysis. The other part was stored in Davidson's fixative for the preparation of histological sections. Total RNA was isolated from parts of harvested kidneys. Kidney tissue was homogenized and RNA was obtained and transcribed to cDNA. Using TaqMan real time PCR renal mRNA expression of fibrotic markers was analyzed in kidney tissues. For the assessment of fibrosis on the protein level paraffin tissue sections were stained with alpha-smooth muscle actin (αSMA) and Sirius Red/Fast Green Collagen Stainings using standard procedures.
# (§4) All data are expressed as means±S.D. Differences between groups were analyzed by one-way ANOVA with Dunnett's corrections for multiple comparisons. Statistical significance was defined as p<0.05.
# (§5) After 10 days, the weight of the kidneys was measured, and RNA-markers αSMA, Col1α1, Col3α1, Col4α1 were measured with RT PCR. Further, histological measurements of αSMA (Alpha smooth muscle actin) and Collagen (SR/FG) were carried out.
# [3] = system: Mouse 10 day unilateral ureter obstruction (UUO) model; assay: Mouse 10 day UUO model, histology (αSMA and Sirius Red/Fast Green collagen staining); assay type: in vivo
# Protocol: as §1, §2, §3
# Quantitative measurements of alpha-smooth muscle actin (αSMA)-positive as well as Sirius Red (Collagen) positive areas within the kidneys were obtained by computer image analysis using the Axio Scan Z1 (Zeiss) microscope and the Zen software.
# as §4, §5
# log D = assay type: physicochemical
# [4] = system: mouse renal ischemia reperfusion injury (IRI) model; assay: Mouse uninephrectomy/renal ischemia reperfusion injury (uIRI) model; assay type: in vivo; conditions: 30 [mg/kg] SHP099 p.o. BID
# Protocol: Experiments indicative for acute kidney diseases were carried out in a uninephrectomy/renal ischemia reperfusion injury (uIRI) model (example 3), as e.g. disclosed in Skrypnyk et al (2013).
# In a mouse renal ischemia reperfusion injury (IRI) model, uninephrectomy (UNX) with unilateral renal ischemia (RI), was carried out. Therein, one kidney is removed and the remaining kidney undergoes ischemia/reprefusion via renal artery claming, Animals were then treated according to the following groups: […]
# [5] = Tivozanib once daily (technical control)
# [6] = SHP099 3 and 30 mg/kg bidaily, result in words
compound,measurement,setting,value
COc1cc2nccc(Oc3ccc(NC(=O)Nc4cc(C)on4)c(Cl)c3)c2cc1OC [Tivozanib],macrophage infiltration,"[1]; 3 mg/kg Tivozanib QD p.o., in comparison with SHP099",weaker effects
same,"Col1α1 mRNA expression, percentage vs. placebo",[2]; [5],62%
same,"Col3α1 mRNA expression, percentage vs. placebo",[2]; [5],76%
same,"Col4α1 mRNA expression, percentage vs. placebo",[2]; [5],71%
same,"αSMA mRNA expression, percentage vs. placebo",[2]; [5],64* %
same,Collagen content (SR/FG staining),[3]; [5],significantly reduced
same,αSMA-positive area within the obstructed kidney,[3]; [5],significantly reduced
CC1(N)CCN(c2cnc(-c3cccc(Cl)c3Cl)c(N)n2)CC1 [SHP099],log D,log D,1.7
same,macrophage infiltration,[1]; 100 mg/kg SHP099 BID p.o.,"significant, dose-dependent reduction"
same,"collagen RNA expression in kidney (Collagen 1a1, 3a1, 4a1)",[2]; [6],strong and very significant reduction; also recorded: dose-dependent reduction
same,αSMA RNA expression in kidney,[2]; [6],strong and very significant reduction; also recorded: dose-dependent reduction
same,"Col1α1 mRNA expression, percentage vs. placebo",[2]; 3 [mg/kg] SHP099 bidaily,77%
same,"Col3α1 mRNA expression, percentage vs. placebo",[2]; 3 [mg/kg] SHP099 bidaily,82%
same,"Col4α1 mRNA expression, percentage vs. placebo",[2]; 3 [mg/kg] SHP099 bidaily,85%
same,"αSMA mRNA expression, percentage vs. placebo",[2]; 3 [mg/kg] SHP099 bidaily,81%
same,"Col1α1 mRNA expression, percentage vs. placebo",[2]; 30 [mg/kg] SHP099 bidaily,51%
same,"Col3α1 mRNA expression, percentage vs. placebo",[2]; 30 [mg/kg] SHP099 bidaily,54%
same,"Col4α1 mRNA expression, percentage vs. placebo",[2]; 30 [mg/kg] SHP099 bidaily,56%
same,"αSMA mRNA expression, percentage vs. placebo",[2]; 30 [mg/kg] SHP099 bidaily,47%
same,αSMA-positive area within the obstructed kidney,[3]; 3 [mg/kg] SHP099 bidaily,significant reduction
same,collagen deposition in kidneys,"[3]; SHP099 treated, compared to untreated or Tivozanib treated mice, dose not stated",strong and significant reduction
same,aSMA-positive area in kidneys,"[3]; SHP099 treated, dose not stated",strong and significant reduction
same,Collagen content (SR/FG staining),[3]; both dosages of SHP099 (3 and 30 mg/kg bidaily),dose dependently and significantly reduced
same,podocyte marker NHPS1 expression,[4],reproducible and strong effects
same,serum creatinine,[4],robust reduction
same,serum urea,[4],mild reduction
